{"source": "patent US7175829B2", "about": "“Contrast-enhanced diagnostic imaging method for monitoring interventional therapies” (Epix Pharmaceuticals, Inc., priority 1997, dated 2007)", "key": {"[1]": {"target": "T1, human serum albumin (HSA) (Homo sapiens, UniProt P02768)", "T1 sequence (P02768 25-609)": "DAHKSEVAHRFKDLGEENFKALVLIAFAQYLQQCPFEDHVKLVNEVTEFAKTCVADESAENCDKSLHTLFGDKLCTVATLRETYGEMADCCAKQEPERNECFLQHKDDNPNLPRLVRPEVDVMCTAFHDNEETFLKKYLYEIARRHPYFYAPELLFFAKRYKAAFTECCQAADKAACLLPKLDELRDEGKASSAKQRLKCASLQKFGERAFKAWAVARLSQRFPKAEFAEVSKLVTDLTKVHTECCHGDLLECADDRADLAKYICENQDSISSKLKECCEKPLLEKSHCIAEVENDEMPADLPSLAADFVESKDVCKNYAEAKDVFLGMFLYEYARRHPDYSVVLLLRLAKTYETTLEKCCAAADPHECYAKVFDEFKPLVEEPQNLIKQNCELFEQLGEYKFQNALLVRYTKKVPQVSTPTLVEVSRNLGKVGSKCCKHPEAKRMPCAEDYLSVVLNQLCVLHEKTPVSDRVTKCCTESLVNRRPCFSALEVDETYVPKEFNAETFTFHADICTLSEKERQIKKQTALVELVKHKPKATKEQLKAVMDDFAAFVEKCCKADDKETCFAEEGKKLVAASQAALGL", "assay": "Relaxivity R1 at 20 MHz during thermal denaturation of 4.5% HSA solutions", "format": "physicochemical", "settings": "for R1: 20 MHz, 4.5% HSA solution", "protocol": "(§1) In these examples, the longitudinal relaxivities (R1, mM^−1 sec^−1) were monitored and obtained at 20 MHz by determining the relaxation rate (1/T1) of water protons in phosphate buffered saline (PBS, 150 mM NaCl, 10 mM phosphate, pH=7.4), in PBS solutions containing 4.5 wt % HSA, or in gels containing 4.5 wt % HSA and 1% Agar. The dependence of temperature on relaxivity (R1) was observed by varying the temperature of the samples with a circulating water bath and monitoring sample temperature with a thermocouple.\n(§2) The following three samples were prepared in solutions of 4.5% HSA: (1) a control sample without a contrast agent; (2) a comparative sample with Gd-DTPA; and (3) a sample with MS-325. The samples with Gd-DTPA and MS-325 were prepared by adding an aqueous formulation (pH=7) comprising either Gd-DTPA or MS-325 to the 4.5% HSA solution.\nThe three samples were then used to monitor the thermal denaturation of the 4.5% HSA solutions. […] Each sample was then removed from the NMR and heated at 85° C. for 15 minutes to induce thermal denaturation of the HSA. Subsequently, the sample was returned to the NMR and T1 data was collected at this higher temperature."}, "[2]": {"target": "T1, human serum albumin (HSA)", "assay": "T1-weighted MRI at 1.0 Tesla of agar phantoms containing 4.5% HSA during thermal denaturation", "format": "physicochemical", "settings": "0.3 mM Gd-DTPA, 0.1 mM MS-325; for % Loss ROI: 1% agar, 4.5% HSA, 1.0 Tesla", "protocol": "The following samples were prepared in 1% agar gels containing 4.5% HSA: (1) a control sample without a contrast agent; (2) a comparative sample with Gd-DTPA; and (3) a sample with MS-325. The contrast agents were added in an amount sufficient such that the concentration of Gd-DTPA and MS-325 were 0.3 mM Gd-DTPA and 0.1 mM MS-325, respectively. Such agar gels containing 4.5% HSA are referred to as “phantoms”.\nInitial T1-weighted MRI scans (FISP-3D, TR=15, TE=4, alpha=30) at 1.0 Tesla of the agar phantoms were then obtained at a temperature of about 25° C.\nThe phantoms were then heated in a circulating water bath with additional T1-weighted MRI scans obtained over time."}, "[3]": {"target": "T1, human serum albumin (HSA)", "assay": "Relaxivity R1 at 20 MHz during ethanol denaturation of 4.5% HSA solutions", "format": "physicochemical", "settings": "for R1 0.31 mM Gd-DTPA: 4.5% HSA, 37° C.", "protocol": "as §1, §2\nAbsolute ethanol was then titrated to each of the samples. T1 data (and thus R1 data (=1/T1)) was collected at 20 MHz and 37° C. after each addition of ethanol."}, "[4]": {"assay": "Rat plasma pharmacokinetic experiment (blood retention, AUC-conc.)", "format": "in vivo", "settings": "two rats, tail vein injection of 0.1 mmol/kg Gd^153-labeled Gd-DTPA", "description": "The incorporation into a contrast agent of this invention of a BHEM results in prolonged blood retention of the agent. […] Blood retention (as measured by AUC-conc) can be evaluated experimentally by administration of a contrast agent to rats, rabbits, or higher mammals. It has been observed that blood half-life extension is greater in rabbits and higher mammals than in rats. In this application, blood half-life data, as measured by AUC-conc., represents experimentation in rats.\nFor example, the average plasma concentrations observed after tail vein injection of 0.1 mmol/kg of Gd^153-labeled Gd-DTPA in two rats is shown in FIG. 1."}, "[5]": {"system": "alpha 1-acid glycoprotein (AAG)", "settings": "binding to alpha 1-acid glycoprotein; cited from earlier work"}}, "data": [{"smiles": "O=C([O-])CN(CCN(CC(=O)[O-])CC(=O)O)CCN(CC(=O)[O-])CC(=O)O.[Gd+3]", "note": "[Gd-DTPA, reference compound]", "values": [{"measurement": "R1", "setting": "[1]; 7.3 °C, 0.3 mM Gd-DTPA, 0.1 mM MS-325", "value": 9.4556, "unit": "mM⁻¹ s⁻¹"}, {"measurement": "R1", "setting": "[1]; 11.7 °C, 0.3 mM Gd-DTPA, 0.1 mM MS-325", "value": 8.8125, "unit": "mM⁻¹ s⁻¹"}, {"measurement": "R1", "setting": "[1]; 16.2 °C, 0.3 mM Gd-DTPA, 0.1 mM MS-325", "value": 8.0690, "unit": "mM⁻¹ s⁻¹"}, {"measurement": "R1", "setting": "[1]; 20.6 °C, 0.3 mM Gd-DTPA, 0.1 mM MS-325", "value": 7.4182, "unit": "mM⁻¹ s⁻¹"}, {"measurement": "R1", "setting": "[1]; 25.0 °C, 0.3 mM Gd-DTPA, 0.1 mM MS-325", "value": 6.7426, "unit": "mM⁻¹ s⁻¹"}, {"measurement": "R1", "setting": "[1]; 29.5 °C, 0.3 mM Gd-DTPA, 0.1 mM MS-325", "value": 6.2117, "unit": "mM⁻¹ s⁻¹"}, {"measurement": "R1", "setting": "[1]; 33.9 °C, 0.3 mM Gd-DTPA, 0.1 mM MS-325", "value": 5.7089, "unit": "mM⁻¹ s⁻¹"}, {"measurement": "R1", "setting": "[1]; 38.4 °C, 0.3 mM Gd-DTPA, 0.1 mM MS-325", "value": 5.2984, "unit": "mM⁻¹ s⁻¹"}, {"measurement": "R1", "setting": "[1]; 42.8 °C, 0.3 mM Gd-DTPA, 0.1 mM MS-325", "value": 4.8917, "unit": "mM⁻¹ s⁻¹"}, {"measurement": "R1", "setting": "[1]; 47.3 °C, 0.3 mM Gd-DTPA, 0.1 mM MS-325", "value": 4.5992, "unit": "mM⁻¹ s⁻¹"}, {"measurement": "R1", "setting": "[1]; 51.7 °C, 0.3 mM Gd-DTPA, 0.1 mM MS-325", "value": 4.3083, "unit": "mM⁻¹ s⁻¹"}, {"measurement": "R1", "setting": "[1]; 56.2 °C, 0.3 mM Gd-DTPA, 0.1 mM MS-325", "value": 4.0592, "unit": "mM⁻¹ s⁻¹"}, {"measurement": "R1", "setting": "[1]; 60.6 °C, 0.3 mM Gd-DTPA, 0.1 mM MS-325", "value": 3.8806, "unit": "mM⁻¹ s⁻¹"}, {"measurement": "R1", "setting": "[1]; 85.0 °C, after heating at 85° C. for 15 minutes (HSA denatured), 0.3 mM Gd-DTPA, 0.1 mM MS-325", "value": 4.2102, "unit": "mM⁻¹ s⁻¹"}, {"measurement": "net loss in R1 after denatured samples cooled to physiological temperature", "setting": "[1]; denatured samples cooled to 37° C., 0.3 mM Gd-DTPA, 0.1 mM MS-325", "value": 0.5, "unit": "mM^−1 sec^−1"}, {"measurement": "loss in observed R1 during denaturation of the HSA", "setting": "[1]; from immediately before denaturation (56.2° C.) to immediately after denaturation (85° C.), 0.3 mM Gd-DTPA, 0.1 mM MS-325", "value": 0.1, "unit": "mM⁻¹ s⁻¹"}, {"measurement": "binding to native or denatured HSA", "setting": "[1]; inferred from R1 change during thermal denaturation", "value": "does not bind to either native or denatured HSA"}, {"measurement": "% Loss ROI", "setting": "[2]; 0 min, 25.3 °C", "value": "−0.2456", "unit": "%"}, {"measurement": "% Loss ROI", "setting": "[2]; 10 min, 29.6 °C", "value": "−5.1875", "unit": "%"}, {"measurement": "% Loss ROI", "setting": "[2]; 20 min, 38.3 °C", "value": "−12.806", "unit": "%"}, {"measurement": "% Loss ROI", "setting": "[2]; 30 min, 45.0 °C", "value": "−18.985", "unit": "%"}, {"measurement": "% Loss ROI", "setting": "[2]; 40 min, 53.0 °C", "value": "−30.964", "unit": "%"}, {"measurement": "% Loss ROI", "setting": "[2]; 50 min, 64.7 °C", "value": "−43.833", "unit": "%"}, {"measurement": "% Loss ROI", "setting": "[2]; 60 min, 72.8 °C", "value": "−46.086", "unit": "%"}, {"measurement": "% Loss ROI", "setting": "[2]; 70 min, 87.1 °C", "value": "−47.529", "unit": "%"}, {"measurement": "% Loss ROI", "setting": "[2]; 120 min, 35.5 °C (cooled after denaturation)", "value": "−10.190", "unit": "%"}, {"measurement": "loss in signal intensity after denaturation and cooling", "setting": "[2]; denatured phantoms cooled to 37° C.", "value": 10, "unit": "%"}, {"measurement": "loss of signal intensity on thermal denaturation", "setting": "[2]; phantoms heated above 50–60° C.", "value": "only a modest change"}, {"measurement": "decrease/change in observed relaxivity during ethanol ablation", "setting": "[3]; 4.5% HSA solutions, 0.31 mM Gd-DTPA, 0.08 mM MS-325, 37° C.", "value": 0.3, "unit": "mM⁻¹ s⁻¹"}, {"measurement": "R1 0.31 mM Gd-DTPA", "setting": "[3]; ethanol 0.0 %", "value": 4.1737, "unit": "mM⁻¹ s⁻¹"}, {"measurement": "R1 0.31 mM Gd-DTPA", "setting": "[3]; ethanol 16.1 %", "value": 4.7191, "unit": "mM⁻¹ s⁻¹"}, {"measurement": "R1 0.31 mM Gd-DTPA", "setting": "[3]; ethanol 27.8 %", "value": 5.0021, "unit": "mM⁻¹ s⁻¹"}, {"measurement": "R1 0.31 mM Gd-DTPA", "setting": "[3]; ethanol 36.6 %", "value": 4.9347, "unit": "mM⁻¹ s⁻¹"}, {"measurement": "R1 0.31 mM Gd-DTPA", "setting": "[3]; ethanol 43.5 %", "value": 4.7997, "unit": "mM⁻¹ s⁻¹"}, {"measurement": "R1 0.31 mM Gd-DTPA", "setting": "[3]; ethanol 49.0 %", "value": 4.4623, "unit": "mM⁻¹ s⁻¹"}, {"measurement": "AUC-conc. from 0 to 10 minutes", "setting": "[4]", "value": 3.5, "unit": "mM·min"}]}, {"smiles": "CN(C)CCCN1c2ccccc2Sc2ccc(Cl)cc21", "note": "[chloropromazine]", "values": [{"measurement": "Ka", "setting": "[5]", "value": "35.4×10^5"}]}]}
